Laboratory results: article PMC8379256, “A xanthene derivative, DS20060511, attenuates glucose intolerance by inducing skeletal muscle-specific GLUT4 translocation in mice” (Communications Biology, 2021)
“And” between values parts separate entries of the source, which are not always exact repeats. Equal entries are not always repeated.

How the values were obtained:
[1] = tested on: C57BL/6 mice; assay: Oral glucose tolerance test (GTT) in C57BL/6 mice: blood glucose and plasma insulin; type: in vivo, mouse; design: Blood glucose AUC: unit not given here
Method: Fig. 2 Treatment with DS20060511 decreases the blood glucose levels via inducing GLUT4 translocation and increasing skeletal muscle glucose uptake. a, b Blood glucose levels after treatment with DS20060511 (30 mg kg^−1) in C57BL/6 mice that had received continued access to food (a) and mice that had been denied access to food overnight (b) (n = 8). Values shown are means ± SEM. **P < 0.01 vs. 0 min by one-way ANOVA followed by Dunnett’s test. c Blood glucose and plasma insulin levels during oral GTT in the C57BL/6 mice (n = 5–6). The mice received oral administration of vehicle or DS20060511 at the indicated dose, 15 min prior to glucose administration (1.5 g kg^−1). Values shown are means ± SEM. *P < 0.05, **P < 0.01 vs. vehicle by one-way ANOVA followed by Williams’ test. d [^3H]-2-DG uptake in the soleus muscle, gastrocnemius muscle (Gastro.), heart, and white adipose tissue (WAT) at 60 min during the intraperitoneal GTT in the C57BL/6 mice (n = 3). The mice received oral administration of vehicle or DS20060511 (30 mg kg^−1), 15 min prior to glucose administration (1 g kg^−1 glucose containing [^3H]-2-DG). […] Uncropped blots for e can be found in Supplementary Fig. 6.
(§1) Mice that had been denied access to food overnight received the indicated oral dose of DS20060511 or vehicle 15 min prior to the glucose load (1.5 g kg^−1, except for eNOS-knockout mice, which received 3.0 g kg^−1). Then, after the oral glucose load, the blood glucose levels were measured using Glutest Every in samples obtained from the tail vein at the indicated timepoints. Plasma insulin concentrations were also measured with an ELISA kit (Morinaga Institute of Biological Science, Yokohama, Japan) in blood samples collected from the tail vein at the indicated timepoints.

[2] = tested on: isolated skeletal muscles; assay: 2-DG uptake with muscle contraction (5 Hz electrical stimulation) in isolated muscles; design: species or system mouse; conditions: for IC 2DOG: incubation 10 min
Method: The soleus or EDL muscle was removed from anesthetized mice (isoflurane anesthesia) that had been denied access to food overnight, and incubated with oxygenated (95% O2/5% CO2) Krebs-Henseleit Bicarbonate (KHB) buffer (118.1 mM NaCl, 4.7 mM KCl, 1.1 mM KH2PO4, 1.2 mM MgSO4, 2.5 mM CaCl2, and 25 mM NaHCO3, pH7.4) in the presence of 11.1 mM glucose at 37 °C. The muscle specimens were then treated with the indicated concentrations of the compounds in KHB buffer containing 11.1 mM glucose and 8 mM mannitol for 10 min at 37 °C. Thereafter, the muscles were rinsed with KHB buffer containing 8 mM mannitol and the compounds for 5 min at 37 °C. Lastly, the muscles were treated with the compounds in KHB buffer containing 1 mM 2-DG (with 0.3 μCi mL^−1 [^3H]-2-DG) and 8 mM mannitol (with 0.03 μCi mL^−1 [^14C]-mannitol) for 10 min at 37 °C. After the muscle specimens were washed, they were lysed with 1 N NaOH and neutralized with 1 N HCl. The ^14C- and ^3H-specific activities were counted with a liquid scintillation counter. The specific uptake of 2-DG was calculated by subtracting the nonspecific uptake of mannitol from the total 2-DG uptake. To investigate the effects of muscle contraction, muscle contraction was induced by electrical stimulation with 5 Hz (1 ms pulse duration, 100 V) for 10 min (SEN-5201, Nihon Koden, Tokyo, Japan).

[3] = tested on: WT and eNOSKO mice; assay: Oral GTT in wild-type and eNOS-knockout mice; type: in vivo, mouse; conditions: for Blood glucose: Glucose tolerance test, Wildtype, 10 mg/kg, individual animals
Method: Fig. 7 DS20060511 treatment decreases blood glucose levels in both WT and eNOSKO mice during oral GTT and ITT. a, b Blood glucose levels during oral GTT in wild-type (WT, n = 5) and eNOS-knockout (KO, n = 5–6) mice. Mice received vehicle or DS20060511 (10 mg kg^−1) orally 15 min before the glucose administration (3.0 g kg^−1). c, d Blood glucose levels during ITT in WT (n = 4) and KO (n = 5) mice. Vehicle or DS20060511 (30 mg kg^−1) was given orally at the same time as 0.5 U kg^−1 insulin injection intraperitoneally. Values shown are means ± SEM. *P < 0.05, **P < 0.01, ***P < 0.001 vs. vehicle by the t-test.
C57BL/6 and db/db mice were purchased from CLEA Japan, Tokyo, Japan. GLUT4- knockout mice were generated at RIKEN BioResource Center, Tsukuba, Japan, according to a previously described method. eNOS-knockout mice were kindly provided by Dr. Masato Tsutsui[41],[42]. The mice were group-housed under controlled illumination (12:12 h light-dark cycle) and temperature (23 ± 2 °C) conditions and given free access to normal chow and water, unless otherwise specified. The HFD-fed obese mice were prepared by feeding C57BL/6 mice a HFD for at least 8 weeks from 6 weeks of age. […] Male mice were used for all the experiments in this study. The animal care and experimental procedures used in the study were approved by The University of Tokyo Animal Care Committee (Approval number: 27-3), and the study was carried out in accordance with the Animal Experimentation Guidelines of Daiichi Sankyo Co., Ltd (Approved number: 20000411).
as §1

[4] = DS20060511 1 μM, electrical stimulation +, muscles #1-3

For COc1ccc2c(C)c(C(=O)O)ccc2c1C1C2=C(CC(C)(C)CC2=O)OC2=C1C(=O)CC(C)(C)C2 [DS20060511], the “insulin secretion during oral GTT (in words)” value ([1]; all DS20060511-treated groups, Fig. 2c) was “significantly decreased”, the “Blood glucose AUC” value ([1]; oral GTT, 1 mg/kg) was 366 and 401 and 377 and 335 and 390 and 419 and the “Plasma insulin AUC” value ([1]; oral GTT, 1 mg/kg) was 0.29 and 0.49 and 0.32 and 0.27 and 0.43. The Blood glucose ([1]; oral GTT, 1 mg/kg po at -15 min, -15 min, 1 mg/kg) was 83 mg/dL and 81 mg/dL and 91 mg/dL and 77 mg/dL and 94 mg/dL and 72 mg/dL, the Blood glucose ([1]; oral GTT, 1 mg/kg, 0 min) was 104 mg/dL and 115 mg/dL and 92 mg/dL and 106 mg/dL and 89 mg/dL and the Blood glucose ([1]; oral GTT, 1 mg/kg, 15 min) was 270 mg/dL and 311 mg/dL and 217 mg/dL and 301 mg/dL. For the same molecule, the Blood glucose ([1]; oral GTT, 1 mg/kg, 30 min) was 242 mg/dL and 212 mg/dL and 228 mg/dL and 193 mg/dL and 199 mg/dL and 254 mg/dL, the Plasma insulin ([1]; oral GTT, 1 mg/kg, 30 min) was 0.30 ng/mL and 0.44 ng/mL and 0.25 ng/mL and 0.34 ng/mL and 0.42 ng/mL and 0.33 ng/mL and the Blood glucose ([1]; oral GTT, 1 mg/kg, 60 min) was 171 mg/dL and 217 mg/dL and 165 mg/dL and 153 mg/dL and 199 mg/dL and 230 mg/dL. The Blood glucose ([1]; oral GTT, 1 mg/kg, 90 min) was 118 mg/dL and 159 mg/dL and 127 mg/dL and 138 mg/dL and 142 mg/dL and 153 mg/dL, the Blood glucose ([1]; oral GTT, 1 mg/kg, 120 min) was 106 mg/dL and 119 mg/dL and 109 mg/dL and 124 mg/dL and 132 mg/dL and the “Blood glucose AUC” value ([1]; oral GTT, 3 mg/kg) was 360 and 323 and 398 and 316 and 320 and 374. For the same molecule, the “Plasma insulin AUC” value ([1]; oral GTT, 3 mg/kg) was 0.28 and 0.40 and 0.34 and 0.29 and 0.31, the Blood glucose ([1]; oral GTT, 3 mg/kg, 0 min) was 104 mg/dL and 117 mg/dL and 90 mg/dL and the Blood glucose ([1]; oral GTT, 3 mg/kg, 15 min) was 263 mg/dL and 240 mg/dL and 249 mg/dL and 228 mg/dL. For the same molecule, the Plasma insulin ([1]; oral GTT, 3 mg/kg, 15 min) was 0.51 ng/mL and 0.58 ng/mL and 0.65 ng/mL and 0.53 ng/mL, the Blood glucose ([1]; oral GTT, 3 mg/kg, 30 min) was 228 mg/dL and 164 mg/dL and 233 mg/dL and 181 mg/dL and the Plasma insulin ([1]; oral GTT, 3 mg/kg, 30 min) was 0.28 ng/mL and 0.30 ng/mL and 0.37 ng/mL and 0.39 ng/mL and 0.26 ng/mL. The Blood glucose ([1]; oral GTT, 3 mg/kg, 60 min) was 161 mg/dL and 142 mg/dL and 202 mg/dL and 152 mg/dL, the Blood glucose ([1]; oral GTT, 3 mg/kg, 90 min) was 132 mg/dL and 126 mg/dL and 148 mg/dL and 100 mg/dL and the Blood glucose ([1]; oral GTT, 3 mg/kg, 120 min) was 105 mg/dL and 122 mg/dL and 129 mg/dL. For the same molecule, the Blood glucose ([1]; oral GTT, 3 mg/kg, -15 min) was 82 mg/dL and 84 mg/dL and 94 mg/dL and 79 mg/dL, the “Blood glucose AUC” value ([1]; oral GTT, 10 mg/kg) was 294 and 310 and 309 and 270 and 269 and the “Plasma insulin AUC” value ([1]; oral GTT, 10 mg/kg) was 0.29 and 0.30 and 0.32 and 0.43 and 0.41. The Plasma insulin ([1]; oral GTT, 10 mg/kg, 15 min) was 0.51 ng/mL and 0.50 ng/mL and 0.54 ng/mL and 0.40 ng/mL and 0.68 ng/mL, the Plasma insulin ([1]; oral GTT, 10 mg/kg, 30 min) was 0.35 ng/mL and 0.28 ng/mL and 0.43 ng/mL and 0.31 ng/mL and 0.46 ng/mL and the “Blood glucose AUC” value ([1]; oral GTT, 30 mg/kg) was 258 and 200 and 219 and 225 and 241. The “Plasma insulin AUC” value ([1]; oral GTT, 30 mg/kg) was 0.21 and 0.30 and 0.35 and 0.22 and 0.34, the Plasma insulin ([1]; oral GTT, 30 mg/kg, 15 min) was 0.46 ng/mL and 0.58 ng/mL and 0.48 ng/mL and 0.34 ng/mL and the “blood glucose levels after oral glucose load (in words)” value ([1]; oral GTT, given prior to glucose load, Fig. 2c) was “dose-dependent suppression of rise of the blood glucose levels”. The “IC 2DOG” value [2, 4] was 385 nmol/g and 372 nmol/g and 382 nmol/g, the “Raio (2-DG uptake relative to unstimulated control)” value [2, 4] was 2.15 and 2.08 and 2.17 and the “IC 2DOG” value ([2]; DS20060511 10 μM, electrical stimulation +, muscles #1-3) was 366 nmol/g and 368 nmol/g and 397 nmol/g. The “2-DG uptake with electrical muscle stimulation” value ([2]; vs electrical stimulation alone, Fig. 6a) was “elevated to a greater degree”, the Blood glucose ([3]; 0 min) was 96 mg/dL and 111 mg/dL and 104 mg/dL and 93 mg/dL and 82 mg/dL and the Blood glucose ([3]; 15 min) was 260 mg/dL and 212 mg/dL and 232 mg/dL and 229 mg/dL and 231 mg/dL and 181 mg/dL. The Blood glucose ([3]; 30 min) was 253 mg/dL and 242 mg/dL and 215 mg/dL and 185 mg/dL and 284 mg/dL and 213 mg/dL, the Blood glucose ([3]; 60 min) was 212 mg/dL and 210 mg/dL and 226 mg/dL and 281 mg/dL and 196 mg/dL and the Blood glucose ([3]; 90 min) was 159 mg/dL and 172 mg/dL and 132 mg/dL and 150 mg/dL and 218 mg/dL and 154 mg/dL. For the same molecule, the Blood glucose ([3]; 120 min) was 120 mg/dL and 128 mg/dL and 115 mg/dL and 130 mg/dL and 170 mg/dL and 127 mg/dL, the Blood glucose ([3]; -15 min) was 79 mg/dL and 94 mg/dL and 75 mg/dL and 91 mg/dL and 73 mg/dL and 81 mg/dL and the “blood glucose levels during oral GTT (in words)” value ([3]; WT and eNOSKO mice, 10 mg kg−1 po) was “significantly decreased blood glucose levels in both the WT and eNOSKO mice”.
